“And” between values parts separate entries of the source, which are not always exact repeats. Equal values may be shown once.

The record followed here is patent publication US20180228811A1, “GDNF INDUCTION FOR THE TREATMENT OF RETINAL DISORDERS” (THE SCHEPENS EYE RESEARCH INSTITUTE, INC., priority 2014, published 2018).

Data set [1] deals with GDNF. Kind of data set: GDNF induction by Compound I aqueous solution in wild-type mice. Particulars: 3 hours; for GDNF mRNA induction compared to vehicle-treated control: wild type mice; for GDNF protein upregulation compared to untreated control: wildtype mice, vehicle 1.5 fold. It counts as in vivo, mouse. How it is done: (§1) All animal procedures were performed under general (intraperitoneal ketamine/xylazine) and topical (proparacaine drops) anesthesia. Tropicamide was applied for pupil dilation. After injection, the eye was treated with antibiotic ointment (Bacitracin-Neomycin-Polymyxin). The same procedures were applied to control eyes.
(§2) To study GDNF induction by Compound I aqueous solution, 1 ul of 10 uM (n=5) or 100 uM (n=5) water-based Compound I or 1 ul of Vehicle (n=5) was administered intravitreally using beveled glass needle, connected to a Hamilton syringe through polyethylene tubing. During the injection, corneal paracenthesis was performed to reduce intraocular pressure. Compound I was injected into 4-week old wildtype (C57/Bl6, Jackson labs) and rhodopsin knockout (Humphries et al., Nat. Genet. 15, 216-219 (1997)).
(§3) Three hours after the injection animals were euthanized using CO2, then the death was confirmed by cervical dislocation. The treated and untreated eyes were enucleated and placed in 250 ul of chilled RNAlater buffer (Qiagen) and stored at 4° C. Later, eyes were excised and total neural retina with retinal pigment epithelium were collected into 400 ul of Lysis buffer (Qiagen RNeasy kit) with 5 mM beta-mercaptoethanol. Total RNA was isolated using RNeasy kit (Qiagen) and eluted with 100 ul of Ultrapure water (Life technologies). All flow through from RNA isolation (˜2.4 ml) was collected and mixed with 10 ml of ice-cold (−20° C.) acetone for protein precipitation. The protein was precipitated at −20° C. for 30 minutes, then pelleted at 3500 rpm for 20 min. Pellets were washed once with 100% ethanol, then reconstituted with 300 ul of RIPA buffer with 0.2 mM 4-benzenesulfonyl fluoride hydrochloride (Tocris). mRNA and protein expression were assessed by qPCR and Western Blot and normalized to GAPDH and βActin. The statistical analysis was performed using a T-test (p<0.05) with Bonferroni post-hoc test.

Data set [2] can be described thus: Pharmacokinetic studies of Compound I sustained release formulation (suspension) in wild-type mice. It counts as in vivo, mouse. Particulars: for Compound I content in the collected vitreoretinal samples / Compound I concentration in the vitreoretinal sample: 2 ul of 60 mg/ml suspension intravitreally; for total Compound I content per eye: suspension intravitreally. How it is done:
To profile pharmacokinetics of Compound I after single intravitreal injection, 2 ul of Compound I suspension (60 mg/ml) were administered intravitreally to 3 week old wild-type (C57/Bl6) mice in the same way as described above for the solution. A beveled glass needle connected to a Hamilton syringe through polyethylene tubing was used. During the injection, corneal paracenthesis was performed to reduce intraocular pressure.
For enucleation animals were euthanized at several timepoints after injection: 1 hour (n=5), 1 day (n=3), 2 days (n=3), 7 days (n=3) and 14 days (n=3). The eyes were enucleated and placed in chilled phosphate-buffered saline and kept on ice. The eyes were dissected within 30 minutes post-enucleation: total retina and vitreous were collected into pre-weighed tubes, weighted and snap frozen. For Compound I content in the eye analysis retina and vitreous humor samples were diluted in 0.1% formic acid in 90:10 (v:v) acetonitrile:water before being analyzed for Compound I using an analytical method based on protein precipitation, followed by HPLC/MS/MS analysis. Using a 25 μL aliquot of sample, the lower limit of quantification (LLQ) for Compound I was 1.00 ng/mL. The computer systems that were used on this study to acquire and quantify data included Analyst Version 1.6.1 and SMS2000 version 2.3. The results were analyzed by ANOVA (p<0.05).

The subject of data set [3] is GDNF mRNA. Kind of data set: GDNF mRNA time-course in ARPE19 cells (qPCR). The class given is cell-based, human. The note with it: ARPE19, 100 nM Compound I, normalized by GAPDH and ßActin. How it is done: (§4) GDNF induction […] was assessed using three retinal-specific cell systems: ARPE19, as a model for human retinal pigment epithelium; human retinal progenitor cells (hRPC), as a substitute for human retinal neurons/glia; and mouse eyecups, differentiated from induced pluripotent stem cells. ARPE19 cells are described in Dunn et al., Exp. Eye Res. 62: 155-169, 1996. To study GDNF induction in a human retinal pigment epithelium cell line, ARPE19, thawed ARPE19 cells (passage 33, ATCC) were plated on fibronectin (Akron)-coated plates (Nunc) in stimulation medium at a density of 10 k cells/sq.cm. The flasks were incubated at standard conditions: 37° C., 5% CO2, 100% humidity. Cells were plated 24 hours prior to Compound I treatment and were grown in Ultraculture medium (Lonza), supplemented with 1×MEM NEAA (Gibco), 1× L-glutamine (Gibco), 1× Antibiotic/antimycotic (Gibco), 2 ng/ml bFGF (Peprotech), 1 ng/ml EGF (Peprotech). For qPCR analysis, the experiments were performed in 35 mm Petri dishes in 2 ml of medium with Compound I concentration of 100 nM (DMSO-based solution). Total mRNA was isolated at 0, 15, 30, 60, 120, 240 minutes post stimulation. For protein expression determination by ELISA, the experiments were performed in 96 well plates in 100 ul of medium with each condition (concentrations ranging from 0 to 10 uM) reproduced in 3 wells. […]

Data set [4] concerns GDNF. The data set is described as follows: GDNF induction in mouse eyecups differentiated from induced pluripotent stem cells (ELISA). It counts as cell-based. How it is done: as §4, with “(Peprotech).” for “(Peprotech). For qPCR analysis, the experiments were performed in 35 mm Petri dishes in 2 ml of medium with Compound I concentration of 100 nM (DMSO-based solution). Total mRNA was isolated at 0, 15, 30, 60, 120, 240 minutes post stimulation. For protein expression determination by ELISA, the experiments were performed in 96 well plates in 100 ul of medium with each condition (concentrations ranging from 0 to 10 uM) reproduced in 3 wells.”
To study GDNF induction in retina-like tissue structures, mouse eyecups were differentiated from wild-type mouse induced pluripotent stem cells according to the protocol described previously (Eiraku, M. & Sasai, Y., Nat Protoc 7, 69-79 (2012)). […] The results of dose-dependent GDNF induction were analyzed by ANOVA (p<0.05).
A general note: ELISA stands for enzyme-linked immunosorbent assay.

In data set [5] the test system is GDNF. Kind of data set: GDNF induction by Compound I aqueous solution in rhodopsin knockout mice. The class given is in vivo, mouse. Particulars: 3 hours; for GDNF protein upregulation: vehicle 1.2 fold. How it is done: as §1, §2, §3
The mark [6] stands for this setting: wt mice, 14 days post injection.

In the case of `COc1cc2c(cc1S(=O)(=O)c1ccc(OCc3ccc(Cl)cc3)cc1)CCN(C)CC2` [Compound I, 7-[4-(4-chloro-benzyloxy)-benzenesulfonyl]-8-methoxy-3-methyl-2,3,4,5-tetrahydro-1H-3-benzazepine], the “GDNF mRNA induction compared to vehicle-treated control” value in data set [1] (1 ul of 10 uM solution intravitreally) is reported as 1.3 fold; in data set [1] (1 ul of 100 uM solution intravitreally) it was 1.9 fold; in data set [5] (10 uM solution intravitreally), 1.8 fold; in data set [5] (100 uM solution intravitreally), 1.7 fold. The “GDNF protein upregulation compared to untreated control” value in data set [1] (10 uM solution intravitreally) and in data set [1] (100 uM solution intravitreally) was 2.3 fold in each case. Further, the “time drug may be present according to modeling” value in data set [2] (single 2 ul intravitreal injection of suspension, modeling) is on record as “up to 4 weeks”. Also, the “Compound I content in the collected vitreoretinal samples” value in data set [2] (wt mice, 1 hour post-injection) is recorded as 21 ug per milligram of tissue; in data set [2] (setting [6]) it was 5 ug per milligram of tissue. Also, the “Compound I concentration in the vitreoretinal sample” value in data set [2] (wt mice, 14 days) stood at 5 mg/g tissue; in data set [2] (wt mice, start of time course (1 hour)) it was 20 mg/g tissue. The “time the compound remained in the eye after single intravitreal injection” value in data set [2] (wt mice, single 2 ul injection of suspension) is “at least 2 weeks”. In addition, the “total Compound I content per eye” value in data set [2] (wt mice, 1 hour post-injection) was found to be 80 µg; in data set [2] (setting [6]) it was 28 µg. In addition, the “time of GDNF mRNA peak after stimulation” value in data set [3] is 30 min. Besides, in data set [4], the GDNF induction entry is given as “More than 2 fold”. Further, the “GDNF induction, result in words” value in data set [4] (0 to 10 uM) was “Significant dose-dependent GDNF induction”. The GDNF protein upregulation is > 2 fold and 2.8 fold in data set [5] (10 uM solution intravitreally); > 2 fold and 2.6 fold in data set [5] (100 uM solution intravitreally).
